# Source: patent publication US20180168208A1 (priority 2014, published 2018)
# Where “and” joins values, the source holds several entries; their conditions need not be identical. Equal values may be shown once. Where a name gives a salt, the structure may show the parent alone.
# Key:
# T1R1/T1R3 receptor [1] = molecular target: T1, T1R1/T1R3 receptor (Felis catus, UniProt E3UMS2); assay: cell-based; conditions: for Max resp % of Ala, +IMP (0.2 mM): relative to alanine; for Thres (mM), +IMP (0.2 mM): threshold concentration in the presence of 0.2 mM IMP
# Summary of the method: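 HEK293 cells stably expressing T1R3 with inducible T1R1 were given transmembrane compounds in serial dilutions up to 10 mM, alone or with amino acids and/or nucleotides. Receptor activation was read as an intracellular calcium change with a calcium-sensitive fluorescent dye; T1R3-only cells served as control.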
# T1R1/T1R3 receptor [2] = molecular target: T1, T1R1/T1R3 receptor; assay: Example 6: activation of T1R1/T1R3 by transmembrane compounds, conducted as in Example 5; format: cell-based
# Excerpt: HEK293 cells that stably express T1R3 and inducibly express T1R1 were exposed to transmembrane compounds alone or in combination with one or more amino acids and/or one or more nucleotides to activate the umami receptor. Activation of the T1R1/T1R3 receptor was detected by a change in intracellular calcium levels using a calcium sensitive fluorescent dye. Cells that express T1R3 but not T1R1 were used as a control. A FLIPR® Tetra or a FlexStation® 3 was used for data capture.
# In each experiment, serial dilutions of up to 10 mM of the transmembrane compound were added to the T1R1/T1R3-expressing cells.
# T1R1/T1R3 receptor [3] = molecular target: T1, T1R1/T1R3 receptor; assay: Example 8: agonist screening of transmembrane compounds on T1R1/T1R3 in HEK293 cells; format: cell-based, cat; conditions: for agonist profile assessment (agonist activity): transmembrane compound alone
# Procedure: (§1) HEK293 cells that stably express T1R3 and inducibly express T1R1 were exposed to a transmembrane compound. Activation of the T1R1/T1R3 receptor was detected by a change in intracellular calcium levels using a calcium sensitive fluorescent dye and/or a luminescent reporter system. […] A FLIPR® Tetra or a FlexStation® 3 was used for data capture.
# Each transmembrane compound was tested at concentrations of 0.01 mM, 0.1 mM, and 1 mM. […] To generate the dose response curves, the transmembrane compound was tested at concentrations of between 0.0001 mM and 1.0 mM in the presence of GMP and Ala.
# T1R1/T1R3 receptor [4] = molecular target: T1, T1R1/T1R3 receptor; assay: Example 8: PAM screening of transmembrane compounds with GMP and Ala on T1R1/T1R3 in HEK293 cells; format: cell-based, cat; conditions: for PAM profile assessment (PAM activity): in the presence of GMP and Alanine
# Excerpt: as §1, with “to” for “to a”, “compound alone or in combination with Ala and GMP to activate the umami receptor.” for “compound.”
# Dose response curves were generated for each transmembrane compound at concentrations of 0 (buffer only), 0.01, 0.1 and 1 mM, wherein each of the three concentrations of transmembrane compound was tested in combination with 0.03 mM GMP+100 mM Ala (T1); 0.6 mM GMP+10 mM Ala (T2); 0.1 mM GMP+60 mM Ala (T3) and 0.3 mM GMP+60 mM Ala (T4). The T4 mixture was also tested in a 2-fold dilution series (the T4(×) Concentration). In these experiments, the first test concentration was 2× (2 times) the T4 concentration. The subsequent test concentrations were 2-fold dilutions from that (1×, 0.5×etc.). This dilution series was tested with or without the addition of the test compound at a constant 0.3 mM concentration.
# Activation of the umami receptor was also determined in the presence of 1 mM GMP+100 mM Ala to generate a “maximum” umami receptor activation level.
# T1R1/T1R3 receptor [5] = molecular target: T1, T1R1/T1R3 receptor; assay: cell-based; format: cell-based
# Summary of the method: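 HEK293 cells stably expressing T1R3 with inducible T1R1 received serial dilutions of compound (up to 10 mM), alone or with amino acids and/or nucleotides. Activation was read as an intracellular calcium change with a calcium-sensitive fluorescent dye. Cells expressing T1R3 without T1R1 served as control.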
# [6] = EC50 (mM), +Alanine (20 mM) + IMP (0.2 mM), in the presence of 20 mM alanine and 0.2 mM IMP
# [7] = EC50 (mM), +IMP (0.2 mM), in the presence of 0.2 mM IMP
# [8] = T1R1/T1R3 EC50 +0.2 mM IMP, +0.2 mM IMP
# [9] = T1R1/T1R3 EC50 +20 mM L-alanine + 0.2 mM IMP, +20 mM L-alanine + 0.2 mM IMP
# [10] = T1R1/T1R3 EC50 +20 mM L-alanine, +20 mM L-alanine
# [11] = alone in buffer, read-out: T1R1/T1R3 EC50 alone in buffer
# [12] = compound alone in buffer, read-out: EC50 (mM), +buffer (alone)
SMILES,"Max resp % of IMP, +Alanine (20 mM) (T1R1/T1R3 receptor [1]) [%]","Thres (mM), +Alanine (20 mM) (T1R1/T1R3 receptor [1]) [mM]",EC50 (T1R1/T1R3 receptor [1]; [6]) [mM],EC50 (T1R1/T1R3 receptor [1]; [7]) [mM],EC50 (T1R1/T1R3 receptor [1]; [8]) [mM],EC50 (T1R1/T1R3 receptor [1]; [9]) [mM],EC50 (T1R1/T1R3 receptor [1]; [11]) [mM],EC50 (T1R1/T1R3 receptor [1]; [12]) [mM],"Max resp % of Ala, +IMP (0.2 mM) (T1R1/T1R3 receptor [1]; in the presence of 0.2 mM IMP) [%]","Thres (mM), +IMP (0.2 mM) (T1R1/T1R3 receptor [1]) [mM]",EC50 (T1R1/T1R3 receptor [2]; [8]) [µM],EC50 (T1R1/T1R3 receptor [2]; [11]) [µM],agonist profile assessment (agonist activity) (T1R1/T1R3 receptor [3]),PAM profile assessment (PAM activity) (T1R1/T1R3 receptor [4]),also measured
Nc1ccccc1C(=O)NCCc1ccccc1 [2-amino-N-phenethylbenzamide],93.4,0.3,0.09,0.14,0.14 ± 0.02,0.09 ± 0.01,0.42 ± 0.01,0.42,194.5,0.01,140 ± 30,420 ± 10,–,–,"EC50 (T1R1/T1R3 receptor [1]; EC50 (mM), +Alanine (20 mM), in the presence of 20 mM alanine): 0.48 mM; EC50 (T1R1/T1R3 receptor [1]; [10]): 0.48 ± 0.01 mM; EC50 (T1R1/T1R3 receptor [2]): 480 ± 10 µM"
COC(=O)[C@H](Cc1ccccc1)NCc1ccccc1 [N-benzyl-L-phenylalanine methyl ester HCl],–,–,–,–,–,–,–,–,–,–,–,–,–,–,"EC50 (T1R1/T1R3 receptor [2]; [10]): 50 ± 1 µM; EC50 (T1R1/T1R3 receptor [2]; T1R1/T1R3 EC50 alone in buffer, alone in buffer): 30 ± 2 µM"
COC(=O)[C@H](Cc1ccccc1)NCc1ccccc1.Cl [N-benzyl-L-phenylalanine methyl ester hydrochloride],273.4,0.01,–,–,–,–,–,–,289.4,0.003,–,–,agonist,PAM activity,"Max resp ΔF/F, +IMP (0.2 mM) (T1R1/T1R3 receptor [1]; in the presence of 0.2 mM IMP): 2.2500 ΔF/F"
"O=C(NCCc1c[nH]c2ccccc12)c1cccnc1 [N-(2-(1H-indol-3-yl)ethyl)nicotinamide, N-(2-(1H-Indol-3-yl)ethyl)nicotinamide]",166.4,0.03,0.04,0.05,0.05 ± 0.01,0.04 ± 0.1,0.15 ± 0.03,0.15,170.1,0.003,50 ± 10,150 ± 30,–,–,–
"CCCC(CCC)NC(=O)c1ccc2c(c1)OCO2 [N-(heptan-4-yl)benzo[d][1,3]dioxole-5-carboxamide]",–,–,–,–,–,–,–,–,–,–,–,–,agonist,PAM activity,"Max resp ΔF/F +Alanine (T1R1/T1R3 receptor [5]; + Alanine, Table 17): 1.7725 and 1.2; Max resp ΔF/F +IMP (T1R1/T1R3 receptor [5]; + IMP (0.2 mM), Table 17): 1.4725; Max resp ΔF/F +Alanine (T1R1/T1R3 receptor [5]; +Alanine (20 mM), Table 18): 1.2 and 1.7725; EC50 (T1R1/T1R3 receptor [5]; +Alanine (20 mM), Table 18, read-out: EC50 +Alanine): 420 µM and 1100 µM; Max resp ΔF/F +IMP (T1R1/T1R3 receptor [5]; +IMP (0.2 mM), Table 18): 1.393 and 1.473; EC50 (T1R1/T1R3 receptor [5]; EC50 + IMP, + IMP (0.2 mM), Table 17): 90 µM and 100 µM; EC50 (T1R1/T1R3 receptor [5]; EC50 +Alanine + IMP, +Alanine (20 mM) + IMP (0.2 mM), Table 18): 30 µM and 100 µM; EC50 (T1R1/T1R3 receptor [5]; EC50 +IMP, +IMP (0.2 mM), Table 18): 100 µM and 90 µM; EC50 (T1R1/T1R3 receptor [5]; EC50 - with Ala (20 mM) and IMP (0.2 mM), with 20 mM alanine and 0.2 mM IMP): 30 ± 30 µM; EC50 (T1R1/T1R3 receptor [5]; EC50 - with Ala (20 mM), with 20 mM alanine): 420 ± 60 µM; EC50 (T1R1/T1R3 receptor [5]; EC50 - with IMP (0.2 mM), with 0.2 mM IMP): 90 ± 40 µM; EC50 (T1R1/T1R3 receptor [5]; alone in buffer, read-out: EC50 - alone): 260 ± 90 µM; EC50 (T1R1/T1R3 receptor [5]; compound alone in buffer, Table 17, read-out: EC50 + buffer (alone)): 700 µM and 260 µM; EC50 (T1R1/T1R3 receptor [5]; compound alone in buffer, Table 18, read-out: EC50 +buffer (alone)): 260 µM and 700 µM; EC50 (T1R1/T1R3 receptor [5]; read-out: EC50 + Alanine): 1100 µM and 420 µM"
"O=C(CN1C(=O)C(=O)N(Cc2ccccc2)C1=O)c1ccc2c(c1)OCCCO2 [Formula 8, 1-benzyl-3-(2-(3,4-dihydro-2H-benzo[b][1,4]dioxepin-7-yl)-2-oxoethyl)imidazolidine-2,4,5-trione]",–,–,–,–,–,–,–,–,–,–,–,–,–,–,"T1R1/T1R3 agonist (T1R1/T1R3 receptor [3]; transmembrane compound tested at 0.01, 0.1 and 1 mM, HEK293 cells expressing T1R1/T1R3, intracellular calcium): No; T1R1/T1R3 PAM (T1R1/T1R3 receptor [4]; compound at 0.01, 0.1 and 1 mM in combination with GMP+Ala mixtures (T1-T4), PAM if response greater than sum of compound alone and GMP+Ala alone): Weak PAM"
